Results reported in patent US11319289B2, “5-hydroxy pyridine-based compound for use as P2X1 and P2X3 receptor antagonist and pharmaceutical composition comprising same” (GWANGJU INSTITUTE OF SCIENCE AND TECHNOLOGY, priority 2017, dated 2022).

Key:
[1] = target: T1, mouse P2X1 receptor (mP2X1) (Mus musculus, UniProt P51576); assay: Two-electrode voltage clamp assay, recombinant mP2X1 receptor in Xenopus oocytes; assay type: cell-based; conditions: 10 μM compound, 2 μM ATP, mean±SEM n≥3 (footnote c), read-out: mP2X1 % inhibitory effect at 10 μM
T1 construct: expressed in transfected cells; host or cells: Xenopus oocytes (cRNA microinjection)
T1 sequence (P51576 1-399): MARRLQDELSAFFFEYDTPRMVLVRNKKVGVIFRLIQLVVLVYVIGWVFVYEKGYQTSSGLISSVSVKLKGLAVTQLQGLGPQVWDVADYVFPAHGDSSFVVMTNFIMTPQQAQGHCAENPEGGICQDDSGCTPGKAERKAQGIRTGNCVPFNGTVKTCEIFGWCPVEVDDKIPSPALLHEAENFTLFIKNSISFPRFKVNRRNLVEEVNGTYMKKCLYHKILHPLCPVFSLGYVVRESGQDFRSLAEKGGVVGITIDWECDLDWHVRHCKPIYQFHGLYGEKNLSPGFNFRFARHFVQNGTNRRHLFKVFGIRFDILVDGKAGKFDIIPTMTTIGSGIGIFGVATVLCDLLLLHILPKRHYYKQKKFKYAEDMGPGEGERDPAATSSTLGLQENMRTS
Description: (§1) 1-1. Two-Electrode Voltage Clamp Assay for Recombinant mP2X1 and hP2X3 Receptors
(§2) Xenopus oocytes were isolated and incubated with 270 U/mg of collagenase at 23 to 24° C. for 1.5 hours. Defolliculated oocytes were kept in Barth's solution at 18° C. After 1 day, the defolliculated oocytes were each microinjected cytosolically with mP2X1 and human P2X3 receptor cRNA ([…], 1 μg/mL), incubated for 24 hours at 18° C. in Barth's solution. The cRNA-injected oocytes were kept for 12 days at 4° C. ATP-activated membrane currents (Vh=−70 mV) were recorded from the cRNA-injected oocytes using the two-electrode voltage clamp technique (Axoclamp 2B amplifier). Voltage recording ([…] tip resistance) and current-recording microelectrodes (5 MΩ tip resistance) were filled with 3.0 M KCl. Oocytes were placed in an electrophysiological chamber continuously superfused with Ringer's solution (5 mL/min, at 18° C.) containing 110 mM NaCl, 2.5 mM KCl, 5 mM HEPES and 1.8 mM BaCl2, with pH adjusted to 7.5. To induce an evoked current, 2 μM ATP was superfused for 60 to 120 seconds and then washed for 20 min. For data analysis, the ATP-evoked current was normalized at pH 7.5. The compounds were introduced to the fixed oocytes 20 minutes prior to ATP exposure in the electrophysiological chamber. IC50 values (the concentration of the compound required to inhibit the ATP response by 50%) were determined by Hill plots designed using the Chemical Formula: log(I/Imax−1), where I is the current evoked by ATP in the presence of an antagonist. Data are presented as mean±SEM (n≥3) from different batches of oocytes.
(§3) In order to investigate the structure-activity relationship (SAR) of the compounds synthesized in the present invention, the antagonistic activity was evaluated by a two-electrode voltage clamp (TEVC) assay in Xenopus oocytes expressing the recombinant mP2X1 or hP2X3, respectively. The hP2X7R antagonistic activity was assessed using an ethidium ion accumulation assay in human HEK293 cells stably expressing the recombinant human P2X7R.

[2] = target: T2, human P2X3 receptor (hP2X3) (Homo sapiens, UniProt P56373); assay: Two-electrode voltage clamp assay, recombinant hP2X3 receptor in Xenopus oocytes; assay type: cell-based; conditions: for IC50: 2 μM ATP-evoked current, Xenopus oocytes, mean±SEM n≥3 (footnote d)
T2 construct: expressed in transfected cells; host or cells: Xenopus oocytes (cRNA microinjection)
T2 sequence (P56373 1-397): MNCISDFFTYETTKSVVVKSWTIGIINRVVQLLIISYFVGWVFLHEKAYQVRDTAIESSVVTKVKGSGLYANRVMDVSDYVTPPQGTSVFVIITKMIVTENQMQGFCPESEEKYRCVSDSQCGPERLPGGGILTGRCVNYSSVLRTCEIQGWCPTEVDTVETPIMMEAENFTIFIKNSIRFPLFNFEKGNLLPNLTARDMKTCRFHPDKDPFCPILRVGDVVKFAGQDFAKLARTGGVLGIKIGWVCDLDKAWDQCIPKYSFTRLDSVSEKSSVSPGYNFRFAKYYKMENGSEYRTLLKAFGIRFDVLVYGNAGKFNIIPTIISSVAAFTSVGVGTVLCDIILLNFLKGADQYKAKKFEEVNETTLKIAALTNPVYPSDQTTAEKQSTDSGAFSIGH
Description: as §1, §2, §3

[3] = target: T3, CYP2C9 (Homo sapiens, UniProt P11712); assay: CYP inhibition assay (Vivid fluorometric), 2C9; assay type: biochemical; conditions: human, recombinant human CYP2C9, pH 8; 1 μM in Table 5; read-out: CYP450 inhibition, 2C9 isozyme
T3 construct: purchased Invitrogen
T3 sequence (P11712 whole entry): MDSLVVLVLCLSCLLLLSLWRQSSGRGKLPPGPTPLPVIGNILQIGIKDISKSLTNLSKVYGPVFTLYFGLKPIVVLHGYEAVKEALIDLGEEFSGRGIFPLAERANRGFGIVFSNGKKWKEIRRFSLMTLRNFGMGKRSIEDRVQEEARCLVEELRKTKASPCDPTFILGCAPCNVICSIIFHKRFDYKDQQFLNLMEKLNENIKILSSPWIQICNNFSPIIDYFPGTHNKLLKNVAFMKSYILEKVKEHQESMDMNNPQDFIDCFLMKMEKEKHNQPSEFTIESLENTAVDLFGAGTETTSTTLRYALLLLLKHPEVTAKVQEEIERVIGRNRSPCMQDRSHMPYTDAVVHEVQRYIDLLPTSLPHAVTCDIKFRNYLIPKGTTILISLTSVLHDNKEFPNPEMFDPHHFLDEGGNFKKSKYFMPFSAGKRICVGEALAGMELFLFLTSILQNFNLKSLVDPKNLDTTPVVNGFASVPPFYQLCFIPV
Description: CYP450 (1A2, 2C9, 3A4) enzyme assay was performed by a fluorometric assay using a Vivid® CYP450 screening kit (Invitrogen, USA, CA) in a 96-well black plate according to manufacturer's instructions with some modifications. The assay was performed at room temperature, and the final assay volume was 100 μL. […]
A master pre-mixture (enzyme (0.5 nmol recombinant human CYP450 enzyme)/NADP regeneration solution (333 mM glucose-6-phosphate dissolved, 30 U/mL glucose-6-phosphate dehydrogenase in 100 mM KH2PO4 solution at pH 8.0)) was prepared as a CYP450 reaction buffer (200 mM KH2PO4, pH 8.0). The master pre-mixture was added to each well of the 96 well plate, followed by the vehicle DMSO (control) and test compounds, and the mixture was preincubated for 10 minutes in the plate for background reading. Subsequently, the enzyme reaction was immediately initiated through the addition of CYP450 substrate/NADP^+ mixture. After incubation for 40 minutes, the fluorescence of the product was measured with a CHAMELEON™ multi-technology plate reader (2C9, 3A4: excitation wavelength of 530 nm and emission wavelength of 590 nm, 1A2: excitation wavelength of 415 nm and emission wavelength of 460 nm). The effect of the test compounds on CYP450 (1A2, 2C9, 3A4) was expressed as the percentage of enzyme activity.

Compound	inhibition at 10 µM [1]	IC50 [2]	selectivity for hP2X3R to mP2X1R ([2]; hP2X3R versus mP2X1R)	inhibition at 40 min, 1 µM [3]
CCCc1nc(CCc2ccc(OC)cc2)c(C(=O)O)c(C(=O)O)c1O [Compound 13d, 5-Hydroxy-2-(4-methoxyphenethyl)-6-propylpyridine-3,4-dicarboxylic acid]	42.8 ± 7.4%	93 nM	about 100 fold	–
CCCc1nc(Cc2cccc(Oc3ccccc3)c2)c(C)c(C(=O)OC)c1O [Compound 28, Methyl 3-hydroxy-5-methyl-6-(3-phenoxybenzyl)-2-propylisonicotinate]	–	–	–	28 ± 3%
CCCc1nc(Cc2cccc(Oc3ccccc3)c2)c(C)c(C(=O)O)c1O [Compound 29, 3-Hydroxy-5-methyl-6-(3-phenoxybenzyl)-2-propylisonicotinic acid]	23.3 ± 4.8%	245 nM	–	26 ± 2%
